# Reference: article PMC11111408, “Concurrent inhibition of oncogenic and wild-type RAS-GTP for cancer therapy” (Nature, 2024)
# System: PRISM DNA-barcoded human tumour cell lines
# Test: PRISM pooled cell viability assay;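 for PRISM AUC: 8 threefold dilutions from 10 µM with 5 days of exposure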
# Format: cell-based
# Parameters: AUC (PRISM viability) / AUC (PRISM): unit not given beside the values
# Settings: for AUC (PRISM viability): WT; for PRISM AUC: KRAS MUT
# Description: Cells were then lysed in TCL mRNA lysis buffer, and then PCR with reverse transcription was performed. Detection of the barcodes and univariate and multivariate analysis was then performed as previously described. Data analysis is described in the Supplementary Methods. Up-to-date code for our analysis is at the github link: https://github.com/cmap/dockerized_mts.
# For every gene with non-silent mutations in at least four cell-lines, we compared the AUC values between cells with and without those mutations using a t-test. This analysis was carried out for: (i) the full dataset; (ii) excluding cell lines with non-silent KRAS mutations; and (iii) excluding cell lines that have either KRAS or NRAS non-silent mutations.
smiles,measurement,setting,value
CCn1c(-c2cc(N3CCN(C4CC4)CC3)cnc2[C@H](C)OC)c2c3cc(ccc31)-c1csc(n1)C[C@H](NC(=O)[C@H]1[C@@H]3COC[C@@H]31)C(=O)N1CCC[C@H](N1)C(=O)OCC(C)(C)C2 [RMC-7977],AUC (PRISM viability),SCC25_UPPER_AERODIGESTIVE_TRACT,0.3367
same,AUC (PRISM viability),SCLC21H_LUNG,0.9496
same,AUC (PRISM viability),SEM_HAEMATOPOIETIC_AND_LYMPHOID_TISSUE,0.8793
same,AUC (PRISM viability),SF126_CENTRAL_NERVOUS_SYSTEM,0.7112
same,AUC (PRISM viability),SF295_CENTRAL_NERVOUS_SYSTEM,0.7908
same,AUC (PRISM viability),SF539_CENTRAL_NERVOUS_SYSTEM,0.7182
same,AUC (PRISM viability),SH4_SKIN,0.8584
same,PRISM AUC,SH10TC_STOMACH,0.4138
same,PRISM AUC,SHP77_LUNG,0.4654
same,AUC (PRISM viability),SIMA_AUTONOMIC_GANGLIA,0.5854
same,AUC (PRISM viability),SKES1_BONE,0.8807
same,AUC (PRISM viability),SKHEP1_LIVER,0.7844
same,AUC (PRISM viability),SKLMS1_SOFT_TISSUE,0.3954
same,PRISM AUC,SKLU1_LUNG,0.1796
same,AUC (PRISM viability),SKMEL3_SKIN,1
same,AUC (PRISM viability),SKMEL5_SKIN,0.8492
same,AUC (PRISM viability),SKMEL24_SKIN,0.8551
same,AUC (PRISM viability),SKMEL28_SKIN,0.8799
same,AUC (PRISM viability),SKMEL30_SKIN,0.2141
same,AUC (PRISM viability),SKMES1_LUNG,0.4907
same,AUC (PRISM viability),SKNAS_AUTONOMIC_GANGLIA,0.2639
same,AUC (PRISM viability),SKNBE2_AUTONOMIC_GANGLIA,0.4969
same,AUC (PRISM viability),SKNDZ_AUTONOMIC_GANGLIA,0.7338
same,AUC (PRISM viability),SKNMC_BONE,0.8913
same,AUC (PRISM viability),SKNO1_HAEMATOPOIETIC_AND_LYMPHOID_TISSUE,0.4958
same,AUC (PRISM viability),SKOV3_OVARY,0.8555
same,AUC (PRISM viability),SKUT1_SOFT_TISSUE,0.8493
same,AUC (PRISM viability),SNB75_CENTRAL_NERVOUS_SYSTEM,0.7551
same,PRISM AUC,SNGM_ENDOMETRIUM,0.5073
same,PRISM AUC,SNU1_STOMACH,0.47
same,AUC (PRISM viability),SNU46_UPPER_AERODIGESTIVE_TRACT,0.6229
same,PRISM AUC,SNU61_LARGE_INTESTINE,0.1577
same,AUC (PRISM viability),SNU182_LIVER,1
same,AUC (PRISM viability),SNU201_CENTRAL_NERVOUS_SYSTEM,0.8111
same,PRISM AUC,SNU213_PANCREAS,0.2216
same,AUC (PRISM viability),SNU216_STOMACH,0.4345
same,AUC (PRISM viability),SNU245_BILIARY_TRACT,0.5897
same,AUC (PRISM viability),SNU308_BILIARY_TRACT,0.4973
same,AUC (PRISM viability),SNU398_LIVER,0.9232
same,PRISM AUC,SNU407_LARGE_INTESTINE,0.42
same,PRISM AUC,SNU410_PANCREAS,0.5771
same,AUC (PRISM viability),SNU423_LIVER,0.6851
same,AUC (PRISM viability),SNU449_LIVER,0.7416
same,AUC (PRISM viability),SNU466_CENTRAL_NERVOUS_SYSTEM,0.3575
same,AUC (PRISM viability),SNU489_CENTRAL_NERVOUS_SYSTEM,0.8437
same,PRISM AUC,SNU601_STOMACH,0.2276
same,AUC (PRISM viability),SNU685_ENDOMETRIUM,0.8482
same,AUC (PRISM viability),SNU719_STOMACH,0.2772
same,AUC (PRISM viability),SNU761_LIVER,0.9921
same,AUC (PRISM viability),SNU840_OVARY,0.3829
same,PRISM AUC,SNU869_BILIARY_TRACT,0.3809
same,AUC (PRISM viability),SNU878_LIVER,0.7757
same,AUC (PRISM viability),SNU886_LIVER,0.4222
same,AUC (PRISM viability),SNU899_UPPER_AERODIGESTIVE_TRACT,0.2281
same,AUC (PRISM viability),SNU1076_UPPER_AERODIGESTIVE_TRACT,0.2341
same,AUC (PRISM viability),SNU1077_ENDOMETRIUM,0.9228
same,AUC (PRISM viability),SNU1079_BILIARY_TRACT,0.7613
same,AUC (PRISM viability),SNU1105_CENTRAL_NERVOUS_SYSTEM,0.4704
same,AUC (PRISM viability),SNU1196_BILIARY_TRACT,0.9637
same,AUC (PRISM viability),SNU1214_UPPER_AERODIGESTIVE_TRACT,0.179
same,PRISM AUC,SNUC2A_LARGE_INTESTINE,0.7905
same,AUC (PRISM viability),SNUC4_LARGE_INTESTINE,0.612
same,AUC (PRISM viability),SQ1_LUNG,0.3633
same,AUC (PRISM viability),SR786_HAEMATOPOIETIC_AND_LYMPHOID_TISSUE,0.6127
same,PRISM AUC,SUIT2_PANCREAS,0.4229
same,PRISM AUC,SW480_LARGE_INTESTINE,0.2548
same,AUC (PRISM viability),SW579_THYROID,0.4828
same,PRISM AUC,SW620_LARGE_INTESTINE,0.1434
same,AUC (PRISM viability),SW780_URINARY_TRACT,0.559
same,PRISM AUC,SW900_LUNG,0.3401
same,AUC (PRISM viability),SW1088_CENTRAL_NERVOUS_SYSTEM,0.6279
same,AUC (PRISM viability),SW1271_LUNG,0.5768
same,AUC (PRISM viability),SW1353_BONE,0.841
same,AUC (PRISM viability),SW1710_URINARY_TRACT,0.7469
same,AUC (PRISM viability),SW1783_CENTRAL_NERVOUS_SYSTEM,0.7461
same,PRISM AUC,SW1990_PANCREAS,0.4703
same,PRISM AUC,T3M10_LUNG,0.7347
same,AUC (PRISM viability),T24_URINARY_TRACT,0.4656
same,AUC (PRISM viability),T47D_BREAST,0.8281
same,PRISM AUC,T84_LARGE_INTESTINE,0.5086
same,AUC (PRISM viability),T98G_CENTRAL_NERVOUS_SYSTEM,0.6265
same,AUC (PRISM viability),TALL1_HAEMATOPOIETIC_AND_LYMPHOID_TISSUE,0.6203
same,AUC (PRISM viability),TC32_BONE,0.7163
same,AUC (PRISM viability),TC71_BONE,0.7602
same,PRISM AUC,TCCPAN2_PANCREAS,0.4522
same,AUC (PRISM viability),TCCSUP_URINARY_TRACT,0.7623
same,AUC (PRISM viability),TE1_OESOPHAGUS,0.7271
same,AUC (PRISM viability),TE5_OESOPHAGUS,0.4124
same,AUC (PRISM viability),TE6_OESOPHAGUS,0.4273
same,AUC (PRISM viability),TE8_OESOPHAGUS,0.499
same,AUC (PRISM viability),TE9_OESOPHAGUS,0.6448
same,AUC (PRISM viability),TE10_OESOPHAGUS,0.472
same,AUC (PRISM viability),TE11_OESOPHAGUS,0.5416
same,AUC (PRISM viability),TE14_OESOPHAGUS,0.4491
same,AUC (PRISM viability),TE15_OESOPHAGUS,0.2922
same,AUC (PRISM viability),TE617T_SOFT_TISSUE,0.2711
same,AUC (PRISM viability),TF1_HAEMATOPOIETIC_AND_LYMPHOID_TISSUE,0.2378
same,AUC (PRISM viability),THP1_HAEMATOPOIETIC_AND_LYMPHOID_TISSUE,0.3541
same,AUC (PRISM viability),TM31_CENTRAL_NERVOUS_SYSTEM,0.8811
same,PRISM AUC,TOV21G_OVARY,0.5751
same,AUC (PRISM viability),TOV112D_OVARY,0.6714
same,AUC (PRISM viability),TT2609C02_THYROID,0.2965
same,AUC (PRISM viability),TT_OESOPHAGUS,0.5096
same,AUC (PRISM viability),TT_THYROID,1
same,AUC (PRISM viability),TUHR4TKB_KIDNEY,1
same,AUC (PRISM viability),TYKNU_OVARY,0.2088
same,AUC (PRISM viability),U2OS_BONE,0.5581
same,AUC (PRISM viability),U87MG_CENTRAL_NERVOUS_SYSTEM,0.5899
same,AUC (PRISM viability),U118MG_CENTRAL_NERVOUS_SYSTEM,0.8323
same,AUC (PRISM viability),U178_CENTRAL_NERVOUS_SYSTEM,0.6826
same,AUC (PRISM viability),U251MG_CENTRAL_NERVOUS_SYSTEM,0.531
same,AUC (PRISM viability),U343_CENTRAL_NERVOUS_SYSTEM,0.5615
same,AUC (PRISM viability),U937_HAEMATOPOIETIC_AND_LYMPHOID_TISSUE,0.5098
same,AUC (PRISM viability),UACC62_SKIN,0.8484
same,AUC (PRISM viability),UACC257_SKIN,0.9461
same,AUC (PRISM viability),UMUC1_URINARY_TRACT,0.3417
same,AUC (PRISM viability),UO31_KIDNEY,0.7674
same,AUC (PRISM viability),VMCUB1_URINARY_TRACT,0.3401
same,AUC (PRISM viability),VMRCRCW_KIDNEY,0.6728
same,AUC (PRISM viability),VMRCRCZ_KIDNEY,0.8522
same,AUC (PRISM viability),WM88_SKIN,0.8971
same,AUC (PRISM viability),WM793_SKIN,0.8157
same,AUC (PRISM viability),WM983B_SKIN,0.8254
same,AUC (PRISM viability),WM1799_SKIN,0.8407
same,AUC (PRISM viability),WM2664_SKIN,1
same,AUC (PRISM viability),WSUDLCL2_HAEMATOPOIETIC_AND_LYMPHOID_TISSUE,0.6176
same,PRISM AUC,YAPC_PANCREAS,0.2462
same,PRISM AUC,YD8_UPPER_AERODIGESTIVE_TRACT,0.7835
same,AUC (PRISM viability),YD10B_UPPER_AERODIGESTIVE_TRACT,0.2966
same,AUC (PRISM viability),YD15_SALIVARY_GLAND,0.5241
same,AUC (PRISM viability),YD38_UPPER_AERODIGESTIVE_TRACT,0.2157
same,AUC (PRISM viability),YH13_CENTRAL_NERVOUS_SYSTEM,0.7662
same,AUC (PRISM viability),YKG1_CENTRAL_NERVOUS_SYSTEM,0.6011
same,AUC (PRISM viability),ZR751_BREAST,0.8548
